What is called EC50 is the concentration giving half of the maximal effect. Low readings indicate an effect from little substance, high ones a need for much substance.

Results on 28 compounds are retold here after patent US20200055839A1 (priority 2017, published 2020).

The experiment relates to NL-RLuc virus. Put plainly: Inhibition of HIV replication (NL-RLuc virus, luciferase readout in MT-2 cells). Format: cell-based. The note with it: Human immunodeficiency virus 1, MT2, 120 h, MT-2 cells infected with NL-RLuc virus, 5 days of incubation, 10% FBS, at least 2 experiments. A digest of the protocol: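 EC50 derived via median effect equation from at least 2 experiments, using luciferase expression as virus-growth readout. Replication-competent NL-RLuc reporter virus (nef partly replaced by Renilla luciferase) infected MT-2 cells with serial compound dilutions; 5-day incubation in RPMI 1640 plus 10% FBS.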

In turn, `Cc1nc(NCCN2CCCCC2)c(-c2ccc(OCCc3ccc(F)cc3)cc2)c(N2CCC(C)(C)CC2)c1[C@H](OC(C)(C)C)C(=O)O` [Example 29, (S)-2-(tert-Butoxy)-2-(4-(4,4-dimethylpiperidin-1-yl)-5-(4-(4-fluorophenethoxy)phenyl)-2-methyl-6-((2-(piperidin-1-yl)ethyl)amino)pyridin-3-yl)acetic acid] returned an EC50 of 0.2 nM.
As for `CC1(C)CCN(c2c(-c3ccc(OCCc4ccc(F)cc4)c(F)c3)cnc(C#N)c2[C@H](OC(C)(C)C)C(=O)O)CC1` [Example 217, (S)-2-(tert-Butoxy)-2-(2-cyano-4-(4,4-dimethylpiperidin-1-yl)-5-(3-fluoro-4-(4-fluorophenethoxy)phenyl)pyridin-3-yl)acetic acid], it took 10 nM to reach a half-maximal effect (EC50).
The value for `Cc1ncc(-c2cnc(N(C)C)c(F)c2)c(N2CCC(C)(C)CC2)c1[C@H](OC(C)(C)C)C(=O)O` [Example 114, (S)-2-(tert-Butoxy)-2-(6′-(dimethylamino)-4-(4,4-dimethylpiperidin-1-yl)-5′-fluoro-6-methyl-[3,3′-bipyridin]-5-yl)acetic acid] was 24 nM; that for `Cc1nc(OCCO)c(-c2ccc(OCCc3ccc(F)cc3)cc2)c(N2CCC(C)(C)CC2)c1[C@H](OC(C)(C)C)C(=O)O` [Example 103, (S)-2-(tert-Butoxy)-2-(4-(4,4-dimethylpiperidin-1-yl)-5-(4-(4-fluorophenethoxy)phenyl)-6-(2-hydroxyethoxy)-2-methylpyridin-3-yl)acetic acid] was 2 nM; that for `Cc1ncc(-c2ccc(OCCc3ccc(F)cc3)c(F)c2)c(N2CCC(C)(C)CC2)c1[C@H](OC(C)(C)C)C(=O)O` [Example 122, (S)-2-(tert-Butoxy)-2-(4-(4,4-dimethylpiperidin-1-yl)-5-(3-fluoro-4-(4-fluorophenethoxy)phenyl)-2-methylpyridin-3-yl)acetic acid] was 1 nM.
The value for `CC1(C)CCN(c2c(-c3ccc(OCCc4ccc(F)cc4)c(F)c3)cnc(Cl)c2[C@H](OC(C)(C)C)C(=O)O)CC1` [Example 214, (S)-2-(tert-Butoxy)-2-(2-chloro-4-(4,4-dimethylpiperidin-1-yl)-5-(3-fluoro-4-(4-fluorophenethoxy)phenyl)pyridin-3-yl)acetic acid] was 9 nM; that for `Cc1ncc(-c2cnc(OCCc3cccc(F)c3)c(Cl)c2)c(N2CCC(C)(C)CC2)c1[C@H](OC(C)(C)C)C(=O)O` [Example 251, (S)-2-(tert-Butoxy)-2-(5′-chloro-4-(4,4-dimethylpiperidin-1-yl)-6′-(3-fluorophenethoxy)-6-methyl-[3, 3′-bipyridin]-5-yl)acetic acid] was 2 nM.
In the case of `CCC(C)COc1ccc(-c2cnc(C)c([C@H](OC(C)(C)C)C(=O)O)c2N2CCC(C)(C)CC2)nc1` (stereo partly drawn) [Example 360, (2S)-2-(tert-butoxy)-2-[4′-(4,4-dimethylpiperidin-1-yl)-6′-methyl-5-(2-methylbutoxy)-[2,3′-bipyridine]-5′-yl]acetic acid], a half-maximal response (EC50) required 0.8 nM.
The value for `COc1ccc(F)c(-c2cnc(C)c([C@H](OC(C)(C)C)C(=O)O)c2N2CCC(C)(C)CC2)c1` [Example 150, (2S)-2-(tert-Butoxy)-2-[4-(4,4-dimethylpiperidin-1-yl)-5-(2-fluoro-5-methoxyphenyl)-2-methylpyridin-3-yl]acetic acid] was 12 nM; that for `Cc1nc(Nc2ccncc2)c(-c2ccc(OCCc3ccc(F)cc3)cc2)c(N2CCC(C)(C)CC2)c1[C@H](OC(C)(C)C)C(=O)O` [Example 77, (S)-2-(tert-Butoxy)-2-(4-(4,4-dimethylpiperidin-1-yl)-5-(4-(4-fluorophenethoxy)phenyl)-2-methyl-6-(pyridin-4-ylamino)pyridin-3-yl)acetic acid] was 0.6 nM.
In the case of `COc1c(F)cc(-c2c(CN3CCC4(CCC4)CC3)nc(Cl)c([C@H](OC(C)(C)C)C(=O)O)c2N2CCC(C)(C)CC2)cc1F` [Example 204], the EC50 turned out to be 1 nM.
Turning to `Cc1nc(CN2CCC3(CCC3)CC2)c(-c2ccc(F)c(F)c2)c(N2CCC(C)(C)CC2)c1[C@H](OC(C)(C)C)C(=O)O` [Example 195, (2S)-2-[6-({7-Azaspiro[3.5]nonan-7-yl}methyl)-5-(3,4-difluorophenyl)-4-(4,4-dimethylpiperidin-1-yl)-2-methylpyridin-3-yl]-2-(tert-butoxy)acetic acid], the EC50 came to 1 nM.
As to `Cc1ncc(-c2ccc(OCCc3cc(F)c(F)cc3F)cn2)c(N2CCC(C)(C)CC2)c1[C@H](OC(C)(C)C)C(=O)O` [Example 353, (2S)-2-(tert-butoxy)-2-[4′-(4,4-dimethylpiperidin-1-yl)-6′-methyl-5-[2-(2,4,5-trifluorophenyl)ethoxy]-[2,3′-bipyridine]-5′-yl]acetic acid], the midpoint of the response, the EC50, lay at 0.8 nM. The EC50 values of the last two compounds are within 1.5-fold of each other.
For `Cc1ncc(-c2ccc(OCCc3ccc(F)cc3)c(Cl)c2)c(N2CCC(C)(C)CC2)c1[C@H](OC(C)(C)C)C(=O)O` [Example 235, (S)-2-(tert-Butoxy)-2-(5-(3-chloro-4-(4-fluorophenethoxy)phenyl)-4-(4,4-dimethylpiperidin-1-yl)-2-methylpyridin-3-yl)acetic acid], the EC50 is 2 nM.
The same measure for `Cc1nc(N)c(-c2cnc(NCCc3ccc(F)cc3)c(F)c2)c(N2CCC(C)(C)CC2)c1[C@H](OC(C)(C)C)C(=O)O` [Example 113, (S)-2-(2-Amino-4-(4,4-dimethylpiperidin-1-yl)-5′-fluoro-6′-((4-fluorophenethyl)amino)-6-methyl-[3, 3′-bipyridin]-5-yl)-2-(tert-butoxy)acetic acid]: 3 nM; for `CCOc1ccc(-c2cnc(C)c([C@H](OC(C)(C)C)C(=O)O)c2N2CCC(C)(C)CC2)c(F)c1F` [Example 175, (2S)-2-(tert-Butoxy)-2-[4-(4,4-dimethylpiperidin-1-yl)-5-(4-ethoxy-2,3-difluorophenyl)-2-methylpyridin-3-yl]acetic acid]: 6 nM; for `COc1nc(-c2cnc(C)c([C@H](OC(C)(C)C)C(=O)O)c2N2CCC(C)(C)CC2)ccc1OCCc1ccc(F)cc1` [Example 249, (S)-2-(tert-Butoxy)-2-(4′-(4,4-dimethylpiperidin-1-yl)-5-(4-fluorophenethoxy)-6-methoxy-6′-methyl-[2, 3′-bipyridin]-5′-yl)acetic acid]: 2 nM.
The value for `Cc1ncc(-c2cncc(F)c2)c(N2CCC(C)(C)CC2)c1[C@H](OC(C)(C)C)C(=O)O` [Example 148, (2S)-2-(tert-Butoxy)-2-[4-(4,4-dimethylpiperidin-1-yl)-5′-fluoro-6-methyl-[3, 3′-bipyridine]-5-yl]acetic acid] was 7 nM; that for `Cc1cc(F)ccc1CCOc1ncc(-c2cnc(C)c([C@H](OC(C)(C)C)C(=O)O)c2N2CCC(C)(C)CC2)cc1F` [Example 398, (2S)-2-(tert-butoxy)-2-[4-(4,4-dimethylpiperidin-1-yl)-5′-fluoro-6′-[2-(4-fluoro-2-methylphenyl)ethoxy]-6-methyl-[3,3′-bipyridine]-5-yl]acetic acid] was 2 nM; that for `CC1(C)CCN(c2c(-c3ccc(OCCc4ccc(F)cc4)cc3)cncc2[C@H](OC(C)(C)C)C(=O)O)CC1` [Example 200, (S)-2-(tert-Butoxy)-2-(4-(4,4-dimethylpiperidin-1-yl)-5-(4-(4-fluorophenethoxy)phenyl)pyridin-3-yl)acetic acid] was 2 nM.
`Cc1ncc(-c2ccc(O[C@@H](C)c3ccccc3)cn2)c(N2CCC(C)(C)CC2)c1[C@H](OC(C)(C)C)C(=O)O` [Example 349, (2S)-2-(tert-butoxy)-2-[4′-(4,4-dimethylpiperidin-1-yl)-6′-methyl-5-[(1S)-1-phenylethoxy]-[2,3′-bipyridine]-5′-yl]acetic acid] displayed an EC50 of 1 nM.
The compound `Cc1nc(-n2cncc2C)c(-c2ccc(OCCc3ccc(F)cc3)cc2)c(N2CCC(C)(C)CC2)c1[C@H](OC(C)(C)C)C(=O)O` (single isomer, unassigned) [Example 55] returned an EC50 of 3 nM. This EC50 lies about 3-fold higher than the previous one.
Compound `Cc1ncc(-c2cnc(OCCc3c(F)cc(F)cc3F)c(F)c2)c(N2CCC(C)(C)CC2)c1[C@H](OC(C)(C)C)C(=O)O` [Example 404, (2S)-2-(tert-butoxy)-2-[4-(4,4-dimethylpiperidin-1-yl)-5′-fluoro-6-methyl-6′-[2-(2,4,6-trifluorophenyl)ethoxy]-[3,3′-bipyridine]-5-yl]acetic acid] showed an EC50 of 3 nM.
Turning to `Cc1ncc(-c2ccc(O)cn2)c(N2CCC(C)(C)CC2)c1[C@H](OC(C)(C)C)C(=O)O` [Example 287, (S)-2-(tert-Butoxy)-2-(4′-(4,4-dimethylpiperidin-1-yl)-5-hydroxy-6′-methyl-[2, 3′-bipyridin]-5′-yl)acetic acid], the EC50 worked out at 379 nM. This EC50 lies about 130-fold higher than the previous one.
Turning to `COc1cccc(COc2ccc(-c3cnc(C)c([C@H](OC(C)(C)C)C(=O)O)c3N3CCC(C)(C)CC3)nc2)c1` [Example 340, (2S)-2-(tert-butoxy)-2-[4′-(4,4-dimethylpiperidin-1-yl)-5-[(3-methoxyphenyl)methoxy]-6′-methyl-[2,3′-bipyridine]-5′-yl]acetic acid], the half-maximal effective concentration (EC50) was 2 nM.
`Cc1ncc(-c2ccc(F)cc2)c(N2CCC(C)(C)CC2)c1[C@H](OC(C)(C)C)C(=O)O` [Example 135, (2S)-2-(tert-Butoxy)-2-[4-(4,4-dimethylpiperidin-1-yl)-5-(4-fluorophenyl)-2-methylpyridin-3-yl]acetic acid] showed an EC50 of 3 nM.
The same measure for `Cc1nc(NCCC2CCN(C)CC2)c(-c2ccc(OCCc3ccc(F)cc3)cc2)c(N2CCC(C)(C)CC2)c1[C@H](OC(C)(C)C)C(=O)O` [Example 31, (S)-2-(tert-Butoxy)-2-(4-(4,4-dimethylpiperidin-1-yl)-5-(4-(4-fluorophenethoxy)phenyl)-2-methyl-6-((2-(1-methylpiperidin-4-yl)ethyl)amino)pyridin-3-yl)acetic acid]: 0.8 nM; for `Cc1ncc(-c2ccc(C(F)CC(C)C)nc2)c(N2CCC(C)(C)CC2)c1[C@H](OC(C)(C)C)C(=O)O` (stereo partly drawn) [Example 411, (2S)-2-(tert-Butoxy)-2-(4-(4,4-dimethylpiperidin-1-yl)-6′-(1-fluoro-3-methylbutyl)-6-methyl-[3, 3′-bipyridin]-5-yl)acetic acid]: 20 nM.
